The values below come from patent publication US10125144B2, “Rho kinase inhibitors” (Kadmon Corporation, LLC, priority 2013, dated 2018).

Values joined by “and” are separate entries in the source; they are usually repeats but may differ in a detail not shown here. Equal entries are not always repeated. “Also recorded” adds a separate entry of the source. Some results are limits rather than exact numbers.

One assay has as its target ROCK1 (Homo sapiens (Human), UniProt Q13464). The experiment in a line: Invitrogen Z'-LYTE kinase assay, ROCK1 inhibition. It counts as biochemical. The note with it: 5 uM ATP.
A further assay deals with ROCK2 (Homo sapiens (Human), UniProt O75116). The experiment in a line: Invitrogen Z'-LYTE kinase assay, ROCK2 inhibition. It counts as biochemical. The note with it: ROCK2 0.8 ug/mL, 12 uM ATP.
Assay [1] has as its system experimental autoimmune encephalomyelitis (EAE). The experiment in a line: experimental autoimmune encephalomyelitis (EAE) in mice. The format is in vivo. The note with it: C57BL/6 mice, MOG35-55 in CFA, 150 mg/kg QD or BID.
The next assay has as its system CD4+ human T cells. The experiment in a line: cytokine secretion by CD4+ human T cells stimulated with anti-CD3/CD28. It counts as cell-based. An excerpt:
Activation of resting T cells, resulting in cytokine secretion and proliferation, involves two distinct signals from antigen-presenting cells (APCs), mimicked by co-stimulation of the T cell receptor (TCR)/CD3 complex and the CD28 receptor. […] Under the same conditions, the inhibition of IFN-γ and IL-2 was not observed (FIG. 2).

In another assay the target is rat VEGFR2 (Rattus norvegicus (Rat), UniProt O08775). The experiment in a line: Biacore analysis of binding to rat VEGFR2. The note with it: rat antigen. On the procedure: The binding constants of Mab 147 and Mab 149 as well as the parent Mab 160 for human, murine, and rat VEGFR2 were determined by Biacore analysis (Table 4).
Another assay deals with human VEGFR2 (Homo sapiens (Human), UniProt P35968). The experiment in a line: Biacore analysis of binding to human VEGFR2. The note with it: human antigen. For orientation: Surface plasmon resonance follows binding to a sensor surface in real time, without labels.
The target of the next assay is murine VEGFR2 (Mus musculus (Mouse), UniProt P35918). The experiment in a line: Biacore analysis of binding to murine VEGFR2. The note with it: murine antigen.
murine VEGFR2, sequence (P35918 20-1345): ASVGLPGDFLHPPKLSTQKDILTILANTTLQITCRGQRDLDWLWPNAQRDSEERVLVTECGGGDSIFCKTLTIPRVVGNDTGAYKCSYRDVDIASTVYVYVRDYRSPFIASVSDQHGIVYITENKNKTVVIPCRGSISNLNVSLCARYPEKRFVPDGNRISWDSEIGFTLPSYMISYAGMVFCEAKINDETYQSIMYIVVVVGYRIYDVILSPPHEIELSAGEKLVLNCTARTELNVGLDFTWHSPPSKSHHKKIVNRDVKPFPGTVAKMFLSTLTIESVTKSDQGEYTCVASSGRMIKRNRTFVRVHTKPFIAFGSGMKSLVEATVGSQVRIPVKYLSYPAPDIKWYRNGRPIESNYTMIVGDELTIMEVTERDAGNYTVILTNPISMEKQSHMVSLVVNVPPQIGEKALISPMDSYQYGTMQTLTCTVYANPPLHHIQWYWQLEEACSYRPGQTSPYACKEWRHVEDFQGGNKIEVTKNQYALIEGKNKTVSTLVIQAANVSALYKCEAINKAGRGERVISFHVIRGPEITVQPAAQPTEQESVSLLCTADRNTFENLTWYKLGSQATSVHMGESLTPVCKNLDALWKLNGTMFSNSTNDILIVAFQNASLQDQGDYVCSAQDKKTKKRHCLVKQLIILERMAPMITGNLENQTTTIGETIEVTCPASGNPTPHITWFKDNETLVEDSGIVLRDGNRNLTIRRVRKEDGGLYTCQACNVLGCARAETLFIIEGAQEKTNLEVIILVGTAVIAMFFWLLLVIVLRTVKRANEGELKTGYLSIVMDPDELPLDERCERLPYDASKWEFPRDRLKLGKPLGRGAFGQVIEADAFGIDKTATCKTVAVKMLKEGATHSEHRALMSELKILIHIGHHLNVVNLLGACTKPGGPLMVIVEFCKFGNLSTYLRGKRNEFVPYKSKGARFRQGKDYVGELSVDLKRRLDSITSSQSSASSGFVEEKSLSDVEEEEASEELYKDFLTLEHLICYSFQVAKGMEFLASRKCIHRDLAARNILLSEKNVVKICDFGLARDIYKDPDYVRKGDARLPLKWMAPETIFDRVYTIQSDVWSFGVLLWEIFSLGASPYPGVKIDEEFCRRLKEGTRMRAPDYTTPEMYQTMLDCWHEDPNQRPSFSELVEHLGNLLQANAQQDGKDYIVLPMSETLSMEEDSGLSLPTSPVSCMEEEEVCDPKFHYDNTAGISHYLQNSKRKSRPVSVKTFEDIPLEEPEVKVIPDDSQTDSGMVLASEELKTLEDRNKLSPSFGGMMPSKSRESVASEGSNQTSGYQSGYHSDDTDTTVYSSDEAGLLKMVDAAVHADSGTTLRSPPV

ROCK1, sequence (Q13464 whole entry): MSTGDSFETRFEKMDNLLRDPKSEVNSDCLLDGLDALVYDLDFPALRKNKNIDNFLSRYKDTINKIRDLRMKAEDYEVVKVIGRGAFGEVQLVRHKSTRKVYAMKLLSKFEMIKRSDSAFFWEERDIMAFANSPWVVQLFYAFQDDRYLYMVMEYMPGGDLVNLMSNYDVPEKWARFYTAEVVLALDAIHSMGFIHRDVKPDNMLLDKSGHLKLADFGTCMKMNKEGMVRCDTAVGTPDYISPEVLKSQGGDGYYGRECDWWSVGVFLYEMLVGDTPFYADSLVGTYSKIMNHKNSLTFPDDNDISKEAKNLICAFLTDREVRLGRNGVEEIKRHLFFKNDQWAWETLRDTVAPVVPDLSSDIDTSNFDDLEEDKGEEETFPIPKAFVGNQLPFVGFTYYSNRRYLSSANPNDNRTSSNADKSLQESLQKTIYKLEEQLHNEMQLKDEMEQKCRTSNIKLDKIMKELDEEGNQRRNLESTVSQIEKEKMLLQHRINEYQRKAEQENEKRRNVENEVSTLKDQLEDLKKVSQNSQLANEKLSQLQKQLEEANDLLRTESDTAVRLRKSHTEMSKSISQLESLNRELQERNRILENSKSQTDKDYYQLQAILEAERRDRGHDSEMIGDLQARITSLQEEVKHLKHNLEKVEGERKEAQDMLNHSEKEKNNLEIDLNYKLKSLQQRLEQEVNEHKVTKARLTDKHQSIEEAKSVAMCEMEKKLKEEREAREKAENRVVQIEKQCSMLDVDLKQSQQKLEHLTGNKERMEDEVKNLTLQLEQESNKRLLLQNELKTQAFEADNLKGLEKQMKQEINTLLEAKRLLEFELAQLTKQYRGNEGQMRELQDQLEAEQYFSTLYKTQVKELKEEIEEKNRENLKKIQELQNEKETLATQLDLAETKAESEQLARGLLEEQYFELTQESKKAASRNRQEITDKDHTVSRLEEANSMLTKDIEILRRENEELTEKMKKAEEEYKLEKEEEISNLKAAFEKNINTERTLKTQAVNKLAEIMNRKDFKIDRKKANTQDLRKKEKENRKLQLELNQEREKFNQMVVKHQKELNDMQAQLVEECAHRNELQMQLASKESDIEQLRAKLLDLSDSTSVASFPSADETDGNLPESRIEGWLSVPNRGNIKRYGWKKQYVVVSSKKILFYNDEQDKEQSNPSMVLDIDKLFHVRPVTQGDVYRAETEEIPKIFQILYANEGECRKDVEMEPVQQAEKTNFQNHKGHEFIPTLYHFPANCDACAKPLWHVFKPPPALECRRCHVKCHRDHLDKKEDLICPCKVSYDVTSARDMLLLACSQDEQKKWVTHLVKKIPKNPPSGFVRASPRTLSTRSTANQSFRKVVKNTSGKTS
ROCK2, sequence (O75116 whole entry): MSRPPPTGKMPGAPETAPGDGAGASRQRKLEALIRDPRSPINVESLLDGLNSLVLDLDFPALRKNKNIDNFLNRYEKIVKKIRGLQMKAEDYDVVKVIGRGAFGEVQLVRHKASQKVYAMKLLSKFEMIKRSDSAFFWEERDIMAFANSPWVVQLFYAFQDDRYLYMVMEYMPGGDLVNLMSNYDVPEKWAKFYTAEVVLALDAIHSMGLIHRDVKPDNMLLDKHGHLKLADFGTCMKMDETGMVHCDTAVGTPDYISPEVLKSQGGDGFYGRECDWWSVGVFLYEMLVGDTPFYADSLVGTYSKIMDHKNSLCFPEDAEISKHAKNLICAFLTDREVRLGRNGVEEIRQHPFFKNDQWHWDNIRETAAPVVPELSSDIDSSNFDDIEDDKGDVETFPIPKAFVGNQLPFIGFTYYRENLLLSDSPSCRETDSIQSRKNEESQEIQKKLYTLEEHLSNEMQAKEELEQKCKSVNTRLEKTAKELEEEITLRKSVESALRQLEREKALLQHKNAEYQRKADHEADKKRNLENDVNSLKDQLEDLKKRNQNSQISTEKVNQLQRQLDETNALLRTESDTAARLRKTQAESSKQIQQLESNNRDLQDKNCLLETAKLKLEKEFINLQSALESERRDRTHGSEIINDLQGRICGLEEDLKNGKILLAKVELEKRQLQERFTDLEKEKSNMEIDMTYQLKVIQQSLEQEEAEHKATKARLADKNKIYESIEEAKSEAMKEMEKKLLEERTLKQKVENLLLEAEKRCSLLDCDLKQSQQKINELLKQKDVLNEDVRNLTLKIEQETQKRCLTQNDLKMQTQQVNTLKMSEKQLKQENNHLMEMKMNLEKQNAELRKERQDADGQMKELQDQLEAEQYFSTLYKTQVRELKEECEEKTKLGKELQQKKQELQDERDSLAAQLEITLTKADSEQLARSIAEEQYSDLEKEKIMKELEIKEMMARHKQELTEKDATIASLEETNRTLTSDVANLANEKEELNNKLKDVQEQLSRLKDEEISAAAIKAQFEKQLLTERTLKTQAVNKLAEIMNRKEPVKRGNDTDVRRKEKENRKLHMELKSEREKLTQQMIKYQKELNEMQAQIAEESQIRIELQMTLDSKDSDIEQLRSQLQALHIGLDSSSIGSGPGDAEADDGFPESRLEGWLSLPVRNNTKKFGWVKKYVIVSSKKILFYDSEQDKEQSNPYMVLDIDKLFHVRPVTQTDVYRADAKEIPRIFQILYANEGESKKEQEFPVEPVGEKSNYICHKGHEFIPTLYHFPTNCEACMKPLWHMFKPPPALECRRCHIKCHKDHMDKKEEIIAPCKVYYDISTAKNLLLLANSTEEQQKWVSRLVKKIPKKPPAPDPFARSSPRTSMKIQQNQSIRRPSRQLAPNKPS
Description for ROCK1: (§1) Dose response curves for Rho-kinase inhibition were derived from a Invitrogen Z′-LYTE™ Kinase Assay Kit (Invitrogen catalog number PV3793). Purified active ROCK1 and ROCK2 were obtained from Invitrogen (catalog numbers ROCK1, PV3691 and ROCK2, PV3759). The kit components include a coumarin and fluorescein labeled peptide based on myosin light chain 2 ([sequence]), a proprietary protease containing development reagent and a proprietary Stop buffer used to terminate the development reaction. The inhibitory activities of compounds are measured according to the manufactures protocol. Briefly, decreasing concentrations of test compounds or the known ROCK inhibitor Y-27963, are added, from 10 uM to 2.56×10^−5 uM to reaction buffer containing 50 mM HEPES pH 7.5, 10 mM MgCl2, 5 mM EGTA, and 0.05% Brij-35 and of ROCK1 at 0.18 ug/mL or ROCK2 at 0.8 ug/mL in assay dilution buffer. This mixture is overlayed into a white 96-well half area plate and the reaction is initiated with the addition of 5 uM ATP for ROCK1 or 12 uM ATP for ROCK2. The assay proceeds at room temperature for 1 hour followed by the addition of development reagent, and further incubation for 1 hour at room temperature. STOP reagent is then added and the reaction and immediately the coumarin and fluorescein emission signals are read on a Tecan Infinite M1000 fluorescence plate reader (excitation: 400 nm; emission 445 and 520 nm, respectively). By comparing the emission ratios of the test samples against control samples, percent phosphorylation values are calculated and the concentration of inhibitor that produces ½ inhibition of kinase activity (IC50) is determined using Prism.
Description for ROCK2: as §1

On to `c1ccc2c(c1)CN(c1nc3c(c(Nc4ccc5[nH]ncc5c4)n1)COC3)C2` [Example 17, N-(1H-Indazol-5-yl)-2-(isoindolin-2-yl)-5,7-dihydrofuro[3,4-d]pyrimidin-4-amine], for which the IC50 – broadly, the point on the concentration scale where inhibition reaches its midpoint – against ROCK1 is greater than 10 µM.

Regarding `c1cc2c(cn1)CN(c1nccc(Nc3ccc4[nH]ncc4c3)n1)C2` [Example 15, N-(2-(1H-Pyrrolo[3,4-c]pyridin-2(3H)-yl)pyrimidin-4-yl)-1H-indazol-5-amine], on ROCK1, the IC50 is greater than 10 µM.

Take `COc1ccc2c(c1)CN(c1nc(C)c(C)c(Nc3ccc4[nH]ncc4c3)n1)C2` [Example 16, N-(2-(5-Methoxyisoindolin-2-yl)-5,6-dimethylpyrimidin-4-yl)-1H-indazol-5-amine]: the IC50 on ROCK2 was greater than 0.01 µM.

Regarding `N#Cc1ccc2c(c1)CN(c1nccc(Nc3ccc4[nH]ncc4c3)n1)C2` [Example 26, 2-(4-((1H-Indazol-5-yl)amino)pyrimidin-2-yl)isoindoline-5-carbonitrile], the figures for the IC50 on ROCK2 and at ROCK1 were 0.123 µM and greater than 10 µM, respectively.

In the case of `COc1ccc2c(c1)CN(c1nc3c(c(Nc4ccc5[nH]ncc5c4)n1)CCN(C)C3)C2` [Example 25, N-(1H-Indazol-5-yl)-2-(5-methoxyisoindolin-2-yl)-7-methyl-5,6,7,8-tetrahydropyrido[3,4-d]pyrimidin-4-amine], the results for the IC50 against ROCK2 and at ROCK1 were 0.13 µM and greater than 10 µM, respectively.

Turning to `Fc1cccc2c1CN(c1nccc(Nc3ccc4[nH]ncc4c3)n1)C2` [Example 29, N-(2-(4-Fluoroisoindolin-2-yl)pyrimidin-4-yl)-1H-indazol-5-amine], the IC50 against ROCK2 was 0.88 µM. This lies in the sub-micromolar range.

Regarding `COc1ccc2c(c1)CN(c1nc3c(c(Nc4ccc5[nH]ncc5c4)n1)CNC3)C2` [Example 22, N-(1H-Indazol-5-yl)-2-(5-methoxyisoindolin-2-yl)-6,7-dihydro-5H-pyrrolo[3,4-d]pyrimidin-4-amine], at ROCK2, the IC50 was 24.3 µM and 24 µM.

`COCc1ccc2c(c1)CN(c1nccc(Nc3ccc4[nH]ncc4c3)n1)C2` [Example 27, N-(2-(5-(Methoxymethyl)isoindolin-2-yl)pyrimidin-4-yl)-1H-indazol-5-amine]: the values for the IC50 against ROCK2 and on ROCK1 were 0.1 µM and 6.73 µM, respectively.

As to `COc1ccc2c(c1)CN(c1nc3c(c(Nc4ccc5[nH]ncc5c4)n1)CCNC3)C2` [Example 24, N-(1H-Indazol-5-yl)-2-(5-methoxyisoindolin-2-yl)-5,6,7,8-tetrahydropyrido[3,4-d]pyrimidin-4-amine], the IC50 against ROCK1 is 2.5 µM.

As for `COc1ccc2c(c1)CN(c1cc(Nc3ccc4[nH]ncc4c3)nc(C)n1)C2` [Example 14, N-(6-(5-Methoxyisoindolin-2-yl)-2-methylpyrimidin-4-yl)-1H-indazol-5-amine], the IC50 is 0.13 to 0.18 µM against ROCK2 and greater than 10 µM against ROCK1.

`Fc1ccc2c(c1)CN(c1nc3c(c(Nc4ccc5[nH]ncc5c4)n1)COC3)C2` [Example 30, 2-(5-Fluoroisoindolin-2-yl)-N-(1H-indazol-5-yl)-5,7-dihydrofuro[3,4-d]pyrimidin-4-amine] returned an IC50 on ROCK1 greater than 10 µM.

Turning to `COc1ccc2c(c1)CCN(c1nccc(Nc3ccc4[nH]ncc4c3)n1)C2` [Example 11, N-(2-(6-Methoxy-3,4-dihydroisoquinolin-2(1H)-yl)pyrimidin-4-yl)-1H-indazol-5-amine], the IC50 against ROCK1 was greater than 10 µM.

As to `c1cc(Nc2ccc3[nH]ncc3c2)nc(N2CCc3sccc3C2)n1` [Example 12, N-(2-(6,7-Dihydrothieno[3,2-c]pyridin-5(4H)-yl)pyrimidin-4-yl)-1H-indazol-5-amine], the IC50 against ROCK1 is greater than 10 µM.

The molecule `COc1ccc2c(c1)CN(c1nccc(Nc3ccc(-c4ccncc4)cc3)n1)C2` [Example 20, 2-(5-Methoxyisoindolin-2-yl)-N-(4-(pyridin-4-yl)phenyl)pyrimidin-4-amine] came in with an IC50 at ROCK1 greater than 10 µM.

Regarding `COc1ccc2c(c1)CN(c1cc(Nc3ccc4[nH]ncc4c3)ncn1)C2` [Example 13, N-(6-(5-Methoxyisoindolin-2-yl)pyrimidin-4-yl)-1H-indazol-5-amine], the IC50 on ROCK1 was greater than 10 µM.

On ROCK1, `Clc1ccc2c(c1)CN(c1nccc(Nc3ccc4[nH]ncc4c3)n1)C2` [Example 10, N-(2-(5-Chloroisoindolin-2-yl)pyrimidin-4-yl)-1H-indazol-5-amine] yielded an IC50 greater than 10 µM.

With `COc1ccc2c(c1)CN(c1nccc(Nc3ccncc3)n1)C2` [Example 19, 2-(5-Methoxyisoindolin-2-yl)-N-(pyridin-4-yl)pyrimidin-4-amine], the IC50 against ROCK2 and at ROCK1 was greater than 10 µM in each case.

`COc1ccc2c(c1)CN(c1ccnc(Nc3ccc4[nH]ncc4c3)n1)C2` [Example 8, N-(4-(5-Methoxyisoindolin-2-yl)pyrimidin-2-yl)-1H-indazol-5-amine]: the IC50 against ROCK1 is greater than 10 µM.

Consider `COc1nc(N2Cc3ccccc3C2)nc(Nc2ccc3[nH]ncc3c2)c1OC` [Example 32, N-(2-(Isoindolin-2-yl)-5,6-dimethoxypyrimidin-4-yl)-1H-indazol-5-amine], for which the IC50 is 0.607 µM at ROCK2 and greater than 10 µM at ROCK1.

With `COc1ccc2c(c1)CN(c1nccc(Nc3ccc4[nH]ncc4c3)n1)C2` [Example 1, N-(2-(5-Methoxyisoindolin-2-yl)pyrimidin-4-yl)-1H-indazol-5-amine], in assay [1], the “EAE paralysis / mean clinical score” value is listed as “reduces paralysis”. The “EAE paralysis / mean clinical score” value in assay [1] (listed as compound 1) was “substantial improvement”. Besides, in the assay with CD4+ human T cells, the IFN-γ secretion entry is “not observed”, the IL-2 secretion entry is “not observed”, the IL-17 secretion result is “dose-dependent; also recorded: significantly inhibited” and the IL-21 secretion entry was “inhibits; also recorded: significantly inhibited”.

For `c1ccc2c(c1)CN(c1nccc(Nc3ccc4[nH]ncc4c3)n1)C2` [Example 2, N-(2-(Isoindolin-2-yl)pyrimidin-4-yl)-1H-indazol-5-amine], at ROCK1, the IC50 was greater than 10 µM.

In the case of `COc1ccc2c(c1)CN(c1nc3c(c(Nc4ccc5[nH]ncc5c4)n1)COCC3)C2` [Example 21, N-(1H-Indazol-5-yl)-2-(5-methoxyisoindolin-2-yl)-7,8-dihydro-5H-pyrano[4,3-d]pyrimidin-4-amine], the concentration for half-maximal inhibition (IC50) against ROCK2 was 0.185 µM; at ROCK1, greater than 10 µM.

B1: Mab 149: affinity matured anti-VEGFR2 antibody derived from Mab 138; VH SEQ ID NO:216, VL SEQ ID NO:220 (antibody, V domains shown)
VH: EVQLLESGGGLVQPGGSLRLSCAASGFTFSWYVMGWVRQAPGKGLEWVSSIYPSGGATNYADSVKGRFTISRDNSKNTLYLQMNSLRAEDTAVYYCARGNYLDYWGQGTLVTVSS
VL: DIQMTQSPGTLSLSPGEGATLSCRASQSVSSNYFGWYQQKPGQAPRLLIYGASSRATGIPDRFSGSGSGTDFTLTISRLEPEDSAVYYCQQFDSSPLSFGGGTKVEIKR
modifications: Mutated library sequence
Consider B1, for which the values for the ka with rat VEGFR2, with human VEGFR2 and with murine VEGFR2 were 3.32E+04, 8.62E+04 and 2.29E+04, respectively. Further, the kd in the assay with rat VEGFR2 is given as 1.43E−03; with human VEGFR2, 6.59E−04; in the assay with murine VEGFR2 it was 1.81E−03.
